Source: article PMC7724679, “Identification of Repurposable Drugs and Adverse Drug Reactions for Various Courses of COVID-19 Based on Single-Cell RNA Sequencing Data” (ArXiv, 2020)

Columns and labels:
Assay type in all cases: cell-based
[1] = system: Influenza A virus (IAV, Puerto Rico/8/1934(H1N1)); assay: Antiviral assay, IAV viral RNA in supernatant by RT-qPCR, Calu-3 cells; details: for IC50: read-out: IC50, antiviral activity against IAV
Vero E6 cells = assay: Drug-induced cytotoxicity, CCK-8, Vero E6 cells; details: 24 h
Protocol: (§1) The drug-induced cytotoxicity of the test drugs (tyrphostin-AG-1478 and brefeldin-a) on Calu-3 and Vero E6 cells was determined by a cell counting kit 8 (CCK-8, APExBIO). Cells were cultured overnight in 96-well cell-culture Petri dishes at a density of 1 × 10^4 cells/well. A 10 mM stock of drug was serially diluted in 100% DMSO to obtain a 10-point dilution series. Plates were cultured with fresh drug-containing medium at 37°C for 24 h. The DMSO concentration remained constant under all conditions at 0.05%. The absorbance of each well was determined by using a 96-well multiscanner. After subtracting background absorption, the results were expressed as a percentage of viability relative to that of control cultures that received no drug. Drug concentrations that inhibited cell viability by 50% (IC50) were determined by using GraphPad Prism 8 software.

[2] = system: mRNA levels of MX1, ISG15, IFNB1, ACE2; assay: Cellular mRNA levels by qPCR in IAV-infected Calu-3 cells; details: IAV-infected Calu-3 cells (MOI of 1), 0 to 10 μM
[3] = system: Influenza A virus (IAV, Puerto Rico/8/1934(H1N1)); assay: Antiviral assay, IAV viral RNA in supernatant by RT-qPCR, Vero E6 cells; details: for IC50: read-out: IC50, antiviral activity against IAV
Calu-3 cells = assay: Drug-induced cytotoxicity, CCK-8, Calu-3 cells; details: 24 h
Protocol: as §1

SMILES | IAV viral RNA levels in cell culture supernatant [1] | IC50 ([1]; Influenza A virus, H1N1 / PR8, Calu-3) [nM] | cytotoxicity (cell viability) (Vero E6 cells) | ACE2 mRNA level [2] | IFNβ (IFNB1) mRNA level [2] | ISG15 mRNA level [2] | MX1 mRNA level [2] | IAV viral RNA levels in cell culture supernatant [3] | IC50 ([3]; Influenza A virus, H1N1 / PR8, Vero C1008) [nM] | cytotoxicity (cell viability) (Calu-3 cells) | IC50 [1] [nM] | IC50 [3] [nM]
C[C@H]1CCC/C=C/[C@@H]2C[C@H](O)C[C@H]2[C@H](O)/C=C/C(=O)O1 [Brefeldin-a] | reduced IAV viral RNA levels dose dependently | 59 | slightly reduced viability | significantly reduced | significantly reduced | significantly reduced | significantly reduced | reduced IAV viral RNA levels dose dependently | 246 | Neither compound caused significant cytotoxicity | – | –
COc1cc2ncnc(Nc3cccc(Cl)c3)c2cc1OC [Tyrphostin-AG-1478] | reduced IAV viral RNA levels dose dependently | – | Neither compound caused significant cytotoxicity | increased | elevated | elevated | elevated | reduced IAV viral RNA levels dose dependently | – | Neither compound caused significant cytotoxicity | 43 | 53
